The IC50 is the point on the concentration scale where inhibition reaches its midpoint.

Experimental findings from article PMC6833013 (Molecules, 2019) are described below.

SMILES strings stand for the structures.

For one series, the system named is Bacillus subtilis MB964. The class given is cell-based.
The next series deals with A549. The experiment in a line: cells. The format is cell-based. The settings on record: Homo sapiens, A549, 24 h, read-out: IC50 A549.
The next series deals with HT29. The experiment in a line: cells. The class given is cell-based. The note with it: Homo sapiens, HT-29, 24 h, read-out: IC50 HT29.
The next series relates to MCF-7. Nature of the series: cells. The format is cell-based. The settings on record: Homo sapiens, MCF7, 24 h, read-out: IC50 MCF-7.
Another series deals with RCC4-VA. The experiment in a line: cells. The class given is cell-based. The note with it: Homo sapiens, 24 h, read-out: IC50 RCC4-VA.
Another series has as its system RCC4-VHL. The experiment in a line: cells. The format is cell-based. The note with it: Homo sapiens, 24 h, read-out: IC50 RCC4-VHL.
The test system of another series is HepG2. Nature of the series: cells. The format is cell-based. The settings on record: Homo sapiens, HepG2, 24 h, read-out: IC50 HepG2.
For another series, the system named is Fa2N4. Nature of the series: cells. The format is cell-based. The settings on record: Homo sapiens, Fa2N-4, 24 h, read-out: IC50 Fa2N4.

Consider `CC(=O)OC1CC2OC3C=C(C)CCC3(C)C1(C)C2(O)CO` [Compound 3, (4R,12S)-12-Hydroxy-12-(hydroxymethyl)trichothec-9-en-4-yl acetate], for which the “B. subtilis MB964 inhibition halo” value in the series on Bacillus subtilis MB964 is recorded as “no halo”. In addition, the “cytotoxic activity in all the cell lines tested” value with human cell lines is given as “lost all their activity”. Further, the IC50 with A549, with HT29, in the series with MCF-7, in the series with RCC4-VA, in the series on RCC4-VHL and with HepG2 was > 20 µg/mL in each case. In addition, the 50% inhibitory concentration (IC50) in the series on Fa2N4 is > 20 µg/mL.

Take `CCC(=O)OC1CC2OC3C=C(C)CCC3(C)C1(C)C2(O)CO` [Compound 16, (4R,12S)-12-Hydroxy-12-hydroxymethyltrichothec-9-en-4-yl propionate]: the “B. subtilis MB964 inhibition halo” value in the series with Bacillus subtilis MB964 is recorded as “no halo”. For the same compound, the “cytotoxic activity in all the cell lines tested” value in the series on human cell lines is “lost all their activity”. Further, the IC50 in the series on A549, with HT29, in the series on MCF-7, with RCC4-VA, with RCC4-VHL and in the series on HepG2 was > 20 µg/mL throughout. Moreover, in the series on Fa2N4, the IC50 is > 20 µg/mL.
